{"source": "ChEMBL document CHEMBL5241054", "about": "“Effective anti-aromatase therapy to battle against estrogen-mediated breast cancer: Comparative SAR/QSAR assessment on steroidal aromatase inhibitors” (Eur J Med Chem, 2020)"}
{"target": "T1, Aromatase (Homo sapiens, UniProt P11511)", "T1 sequence (P11511 whole entry)": "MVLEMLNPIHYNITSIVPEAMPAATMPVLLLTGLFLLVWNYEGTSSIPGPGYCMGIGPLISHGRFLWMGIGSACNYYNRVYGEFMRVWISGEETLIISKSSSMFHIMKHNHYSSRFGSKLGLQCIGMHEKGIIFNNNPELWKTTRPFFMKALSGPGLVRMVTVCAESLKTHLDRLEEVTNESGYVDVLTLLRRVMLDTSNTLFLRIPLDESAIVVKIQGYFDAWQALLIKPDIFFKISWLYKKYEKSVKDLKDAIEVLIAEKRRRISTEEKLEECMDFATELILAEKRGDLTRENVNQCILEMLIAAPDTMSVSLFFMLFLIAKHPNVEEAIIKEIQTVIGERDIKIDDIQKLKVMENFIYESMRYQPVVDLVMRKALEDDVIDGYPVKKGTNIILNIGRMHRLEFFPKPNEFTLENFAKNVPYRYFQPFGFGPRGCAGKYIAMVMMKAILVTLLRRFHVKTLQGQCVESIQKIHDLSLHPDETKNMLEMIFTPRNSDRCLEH", "units": {"IC50": "nM"}}
{"smiles": "C[C@]12C=CC(=O)C=C1C[C@@H](CCc1cccc([N+](=O)[O-])c1)[C@@H]1[C@@H]2CC[C@]2(C)C(=O)CC[C@@H]12", "IC50": 133}
{"smiles": "C[C@]12CC[C@H]3[C@@H](CCC4=CCCC[C@@]43C=O)[C@@H]1C[C@@H](O)C2=O", "IC50": 28000}
{"smiles": "CCCCC1=C[C@@H]2[C@H](CC[C@]3(C)C(=O)CC[C@@H]23)[C@@]2(C)C=CC(=O)C=C12", "IC50": 250}
{"smiles": "C[C@]12CC[C@H]3[C@@H](CCC4=CC(=O)CC[C@@]43C)[C@@H]1C[C@@H](O)[C@@H]2O", "IC50": 899000}
{"smiles": "C[C@]12C=C(CCc3ccccc3)C(=O)C=C1CC[C@@H]1[C@@H]2CC[C@]2(C)C(=O)CC[C@@H]12", "IC50": 2570}
{"smiles": "C[C@]12CC[C@H]3[C@@H](CC=C4CCCC[C@@]43CO)[C@@H]1CCC2O", "note": "(stereo partly drawn)", "IC50": 61900}
{"smiles": "C[C@]12CC[C@H]3[C@@H](CCC4=CC(=O)C=C[C@@]43CI)[C@@H]1CCC2=O", "IC50": 5500}
{"smiles": "CC1(C)C[C@@]2(C)C(=C(O)C1=O)C(=O)C[C@@H]1[C@@H]2CC[C@]2(C)C(=O)CC[C@@H]12", "IC50": 440}
{"smiles": "C[C@]12CC[C@H]3[C@@H](CCC4=CC(=O)C=C[C@@]43CBr)[C@@H]1CCC2=O", "IC50": 1000}
{"smiles": "CCCC1=C[C@@H]2[C@H](CC[C@]3(C)C(=O)CC[C@@H]23)[C@@]2(C)C=CC(=O)C=C12", "IC50": 100}
{"smiles": "C[C@]12C=CC(=O)C=C1C(CCCc1ccccc1)=C[C@@H]1[C@@H]2CC[C@]2(C)C(=O)CC[C@@H]12", "IC50": 350}
{"smiles": "CCCCC[C@@H]1C[C@@H]2[C@H](CC[C@]3(C)C(=O)CC[C@@H]23)[C@@]2(C)CCCC=C12", "IC50": 12000}
{"smiles": "CCC1=C[C@@H]2[C@H](CC[C@]3(C)C(=O)CC[C@@H]23)[C@@]2(C)CCC(=O)C=C12", "IC50": 390}
{"smiles": "Cc1ccc(S(=O)(=O)N2[C@@H]3[C@@H]4[C@H](CC[C@]5(C)C(=O)CC[C@@H]45)[C@@]4(C)CCC(=O)C=C4[C@@H]32)cc1", "note": "(stereo partly drawn)", "IC50": 53800}
{"smiles": "C[C@]12CCC(=O)C=C1C(CCc1ccccc1)=C[C@@H]1[C@@H]2CC[C@]2(C)C(=O)CC[C@@H]12", "IC50": 92}
{"smiles": "C[C@]12CC[C@H]3[C@@H](CCC4=CC(=O)CC[C@@]43CI)[C@@H]1CCC2=O", "IC50": 4100}
{"smiles": "C[C@]12C=CC(=O)C=C1C(c1ccccc1)=C[C@@H]1[C@@H]2CC[C@]2(C)C(=O)CC[C@@H]12", "IC50": 540}
{"smiles": "C[C@]12CCC(=O)C=C1C[C@H](CCc1ccccc1)[C@@H]1[C@@H]2CC[C@]2(C)C(=O)CC[C@@H]12", "IC50": 40.2}
{"smiles": "C[C@]12CC[C@H]3[C@@H](CCC4C(=O)[C@H](O)CC[C@@]43C)[C@@H]1CC[C@@H]2O", "note": "(stereo partly drawn)", "IC50": 3900}
{"smiles": "C[C@]12CCC(=O)C=C1[C@H](O)C(N=[N+]=[N-])[C@@H]1[C@@H]2CC[C@]2(C)C(=O)CC[C@@H]12", "note": "(stereo partly drawn)", "IC50": 3030}
{"smiles": "CCCCC[C@@H]1C[C@@H]2[C@H](CC[C@]3(C)C(=O)CC[C@@H]23)[C@@]2(C)C=CC(=O)C=C12", "IC50": 54}
{"smiles": "C[C@]12CC[C@H]3[C@@H](C[C@H]4O[C@]45C(=O)CCC[C@]35C=O)C1CCC2=O", "note": "(stereo partly drawn)", "IC50": 210000}
{"smiles": "C[C@]12CCCC=C1CC[C@@H]1[C@@H]2CC[C@]2(C)C(=O)[C@@H](Br)C[C@@H]12", "IC50": 5900}
{"smiles": "C[C@]12CCC(=O)C=C1C[C@@H](CCc1ccccc1)[C@@H]1[C@@H]2CC[C@]2(C)C(=O)CC[C@@H]12", "IC50": 138}
{"smiles": "C[C@]12C=CC(=O)C=C1[C@@H](c1ccccc1)C[C@@H]1[C@@H]2CC[C@]2(C)C(=O)CC[C@@H]12", "IC50": 681}
{"smiles": "C[C@]12C=CC(=O)C=C1[C@@H](Cc1ccccc1)C[C@@H]1[C@@H]2CC[C@]2(C)C(=O)CC[C@@H]12", "IC50": 270}
{"smiles": "CCCCC1=C[C@@H]2[C@H](CC[C@]3(C)C(=O)CC[C@@H]23)[C@@]2(C)CCC(=O)C=C12", "IC50": 265}
{"smiles": "C[C@]12CC[C@H]3[C@@H](C=CC4=CC(=O)CC[C@@]43CBr)[C@@H]1CCC2=O", "IC50": 1400}
